The values that follow come from patent US8541418B2, “Inhibitors of polo-like kinase” (Elan Pharmaceutical, Inc., priority 2009, dated 2013).

Like-named read-outs stand apart in the source and are kept apart here.

Format in all cases: biochemical
The target in one assay is PLK1 (Homo sapiens, UniProt P53350). The experiment in a line: PLK TR-FRET peptide assay, PLK1. (In general: TR-FRET usually uses a lanthanide donor and a delayed reading to cut background.)
In a further assay the target is PLK2 (Homo sapiens, UniProt Q9NYY3). The experiment in a line: PLK TR-FRET peptide assay, PLK2. Particulars: for IC50: read-out: Plk2 IC50.
A further assay addresses PLK3 (Homo sapiens, UniProt Q9H4B4). The experiment in a line: PLK TR-FRET peptide assay, PLK3.
Where [1] appears, read: GST-PLK3, 15 min reaction, read-out: Plk3 IC50.
Where [2] appears, read: PLK TR-FRET peptide assay, GST-PLK2, 60 min reaction.

Chain of PLK2 (Q9NYY3 whole entry): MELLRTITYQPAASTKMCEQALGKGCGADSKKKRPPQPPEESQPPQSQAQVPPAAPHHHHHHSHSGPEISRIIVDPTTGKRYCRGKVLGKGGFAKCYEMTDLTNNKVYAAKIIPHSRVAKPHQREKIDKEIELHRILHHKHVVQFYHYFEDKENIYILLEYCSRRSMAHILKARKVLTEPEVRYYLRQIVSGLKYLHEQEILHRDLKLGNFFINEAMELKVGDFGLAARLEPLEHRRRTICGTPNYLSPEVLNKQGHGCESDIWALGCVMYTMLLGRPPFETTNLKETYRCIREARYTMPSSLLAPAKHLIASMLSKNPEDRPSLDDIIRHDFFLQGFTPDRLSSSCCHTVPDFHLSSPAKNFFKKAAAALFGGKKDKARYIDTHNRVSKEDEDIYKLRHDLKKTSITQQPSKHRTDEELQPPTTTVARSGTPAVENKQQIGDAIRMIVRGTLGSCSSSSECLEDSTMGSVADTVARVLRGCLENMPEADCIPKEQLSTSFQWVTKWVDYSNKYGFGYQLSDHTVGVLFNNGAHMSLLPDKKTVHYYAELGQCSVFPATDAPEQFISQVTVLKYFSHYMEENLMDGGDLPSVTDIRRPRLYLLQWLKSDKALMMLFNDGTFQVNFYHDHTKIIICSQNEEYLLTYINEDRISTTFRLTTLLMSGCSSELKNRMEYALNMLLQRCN
Chain of PLK3 (Q9H4B4 whole entry): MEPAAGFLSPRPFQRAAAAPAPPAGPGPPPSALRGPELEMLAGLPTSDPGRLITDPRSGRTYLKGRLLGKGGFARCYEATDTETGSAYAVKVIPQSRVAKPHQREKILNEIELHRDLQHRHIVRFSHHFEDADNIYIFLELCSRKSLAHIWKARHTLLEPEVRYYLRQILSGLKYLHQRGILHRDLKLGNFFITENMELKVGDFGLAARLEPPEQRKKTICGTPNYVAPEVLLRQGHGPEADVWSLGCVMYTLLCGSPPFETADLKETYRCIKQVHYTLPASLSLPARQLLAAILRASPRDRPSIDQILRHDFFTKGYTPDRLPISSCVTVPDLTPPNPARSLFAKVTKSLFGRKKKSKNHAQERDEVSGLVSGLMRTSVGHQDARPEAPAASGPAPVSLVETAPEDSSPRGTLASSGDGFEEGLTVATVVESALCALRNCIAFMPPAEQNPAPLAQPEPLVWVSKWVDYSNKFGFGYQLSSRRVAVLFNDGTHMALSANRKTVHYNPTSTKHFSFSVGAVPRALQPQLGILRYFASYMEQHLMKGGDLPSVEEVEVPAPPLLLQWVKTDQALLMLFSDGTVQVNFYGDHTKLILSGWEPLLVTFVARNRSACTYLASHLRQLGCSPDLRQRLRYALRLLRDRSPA
Chain of PLK1 (P53350 whole entry): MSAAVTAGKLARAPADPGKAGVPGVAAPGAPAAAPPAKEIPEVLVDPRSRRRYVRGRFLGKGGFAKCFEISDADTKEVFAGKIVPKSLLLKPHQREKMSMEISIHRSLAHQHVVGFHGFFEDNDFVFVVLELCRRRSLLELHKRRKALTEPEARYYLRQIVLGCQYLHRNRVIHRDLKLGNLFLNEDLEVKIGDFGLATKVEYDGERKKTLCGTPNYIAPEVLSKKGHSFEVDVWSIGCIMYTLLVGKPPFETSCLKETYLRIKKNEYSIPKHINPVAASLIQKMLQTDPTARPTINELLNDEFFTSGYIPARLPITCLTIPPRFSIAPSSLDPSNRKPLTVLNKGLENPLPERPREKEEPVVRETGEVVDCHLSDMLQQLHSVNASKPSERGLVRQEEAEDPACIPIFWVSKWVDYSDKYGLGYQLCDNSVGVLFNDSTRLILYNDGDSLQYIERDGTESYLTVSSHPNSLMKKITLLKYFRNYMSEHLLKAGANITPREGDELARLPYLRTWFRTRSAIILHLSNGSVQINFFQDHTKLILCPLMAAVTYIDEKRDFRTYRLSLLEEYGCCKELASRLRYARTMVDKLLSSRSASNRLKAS

A word on the IC50: it is the concentration that gives 50% inhibition. `CC[C@@]12CCCN1c1nc(-n3ccnc3-c3cccc(-n4cncn4)c3)ncc1N(C)C2=O` [Example 273, (S)-2-(2-(3-(1H-1,2,4-triazol-1-yl)phenyl)-1H-imidazol-1-yl)-6a-ethyl-5-methyl-6a,7,8,9-tetrahydropyrrolo[2,1-h]pteridin-6(5H)-one]: the IC50 at PLK1 (GST-PLK1, 60 min reaction) is 10 to 50 µM; at PLK2, under 1 µM; on PLK3 (setting [1]) it was over 50 µM.

With `CCC12CCCCN1c1nc(-n3ccnc3-c3ccc(F)c(F)c3)ncc1N(C)C2=O` (racemic) [Example 240, (+/−) 2-(2-(3,4-difluorophenyl)-1H-imidazol-1-yl)-6a-ethyl-5-methyl-7,8,9,10-tetrahydro-5H-pyrido[2,1-h]pteridin-6(6aH)-one], the 50% inhibitory concentration (IC50) against PLK1 (GST-PLK1, 60 min reaction) is 1 to 10 µM; on PLK2 (setting [2]) it was under 1 µM; on PLK3 (setting [1]) it was 10 to 50 µM.

For `CC[C@@H]1C(=O)N(C)c2cnc(-n3ccnc3-c3ccccc3)nc2N1C1CCC1` [Example 47, (R)-8-cyclobutyl-7-ethyl-5-methyl-2-(2-phenyl-1H-imidazol-1-yl)-7,8-dihydropteridin-6(5H)-one], the IC50 against PLK1 (GST-PLK1, 60 min reaction) was under 1 µM; on PLK2 (setting [2]) it was under 1 µM; on PLK3 (setting [1]), 1 to 10 µM.

Turning to `CC[C@@H]1C(=O)N(C)c2cnc(-c3cccc(C(N)=O)c3)nc2N1C1CCCC1` [Example 66, (R)-3-(8-cyclopentyl-7-ethyl-5-methyl-6-oxo-5,6,7,8-tetrahydropteridin-2-yl)benzamide], the half-maximal inhibitory concentration (IC50) is under 1 µM on PLK1 (GST-PLK1, 60 min reaction); under 1 µM on PLK2 (setting [2]); 1 to 10 µM on PLK3 (setting [1]).

Regarding `CN1C(=O)C2CC3CC3N2c2nc(-n3ccnc3-c3ccccc3)ncc21` (stereo not shown) [Example 304, 5-Methyl-2-(2-phenyl-imidazol-1-yl)-7,7a,8,8a-tetrahydro-5H,6aH-1,3,5,8b-tetraaza-cyclopropa[4,5]cyclopenta[1,2-a]naphthalen-6-one], the IC50 on PLK1 (GST-PLK1, 60 min reaction) is over 50 µM; at PLK2 (setting [2]) it was 10 to 50 µM; on PLK3 (setting [1]), over 50 µM.

As for `CC[C@@H]1C(=O)N(C)c2cnc(-n3ccnc3-c3ccc(C#N)cc3)nc2N1C(C)C` [Example 227, (R)-4-(1-(7-ethyl-8-isopropyl-5-methyl-6-oxo-5,6,7,8-tetrahydropteridin-2-yl)-1H-imidazol-2-yl)benzonitrile], the 50% inhibitory concentration (IC50) against PLK1 (GST-PLK1, 60 min reaction) is 10 to 50 µM; at PLK2 (setting [2]), under 1 µM; on PLK3 (setting [1]), 10 to 50 µM.

For `CC[C@@H]1C(=O)N(C)c2cnc(-n3ccnc3-c3ccc(F)c(F)c3)nc2N1C1CC(F)C1` (stereo partly drawn) [Example 229, (R)-2-(2-(3,4-difluorophenyl)-1H-imidazol-1-yl)-7-ethyl-8-(3-fluorocyclobutyl)-5-methyl-7,8-dihydropteridin-6(5H)-one], the IC50 against PLK1 (GST-PLK1, 60 min reaction) is 1 to 10 µM; at PLK2 (setting [2]) it was under 1 µM; on PLK3 (setting [1]), 1 to 10 µM.

`CC[C@@H]1C(=O)N(C)c2cnc(-n3ccnc3C3=CCOCC3)nc2N1C1CCCC1` [Example 84, (R)-8-cyclopentyl-2-(2-(3,6-dihydro-2H-pyran-4-yl)-1H-imidazol-1-yl)-7-ethyl-5-methyl-7,8-dihydropteridin-6(5H)-one]: the 50% inhibitory concentration (IC50) on PLK1 (GST-PLK1, 60 min reaction) was 1 to 10 µM; on PLK2 (setting [2]), under 1 µM; at PLK3 (setting [1]), 10 to 50 µM.

Consider `CC[C@@H]1C(=O)N(C)c2cnc(-n3ccnc3-c3ccccc3)nc2N1C(C)C1CC1` (stereo partly drawn) [Example 350, (7R)-8-(1-cyclopropylethyl)-7-ethyl-5-methyl-2-(2-phenyl-1H-imidazol-1-yl)-7,8-dihydropteridin-6(5H)-one], for which the half-maximal inhibitory concentration (IC50) against PLK1 (GST-PLK1, 60 min reaction) is under 1 µM; on PLK2 (setting [2]), under 1 µM; at PLK3 (setting [1]), under 1 µM.

On to `CC[C@@H]1C(=O)N(C)c2cnc(-c3ccncc3NC(=O)OC(C)(C)C)nc2N1C1CCCC1` [Example 92, (R)-tert-butyl 4-(8-cyclopentyl-7-ethyl-5-methyl-6-oxo-5,6,7,8-tetrahydropteridin-2-yl)pyridin-3-ylcarbamate], for which the IC50 against PLK1 (GST-PLK1, 60 min reaction) was 10 to 50 µM; at PLK2 (setting [2]), 1 to 10 µM; on PLK3 (setting [1]), over 50 µM.

Regarding `CC[C@@H]1C(=O)N(C)c2cnc(-n3ccnc3-c3cccc(Br)c3)nc2N1C(C)C` [Example 220, (R)-2-(2-(3-bromophenyl)-1H-imidazol-1-yl)-7-ethyl-8-isopropyl-5-methyl-7,8-dihydropteridin-6(5H)-one], the half-inhibitory concentration (IC50) on PLK1 (GST-PLK1, 60 min reaction) was under 1 µM; on PLK2 (setting [2]), under 1 µM; at PLK3 (setting [1]), 1 to 10 µM.

In the case of `CC[C@]12CCCCN1c1nc(-n3ccnc3-c3cc(F)cc(F)c3)ncc1N(C)C2=O` [Example 250, (R)-2-(2-(3,5-difluorophenyl)-1H-imidazol-1-yl)-6a-ethyl-5-methyl-7,8,9,10-tetrahydro-5H-pyrido[2,1-h]pteridin-6(6aH)-one], the IC50 against PLK1 (GST-PLK1, 60 min reaction) was over 50 µM; on PLK2 (setting [2]), over 50 µM; at PLK3 (setting [1]) it was over 50 µM.

In the case of `CC[C@@]12CCCN1c1nc(-n3ccnc3-c3cc(F)cc(F)c3)ncc1N(C)C2=O` [Example 226, (S)-2-(2-(3,5-difluorophenyl)-1H-imidazol-1-yl)-6a-ethyl-5-methyl-6a,7,8,9-tetrahydropyrrolo[2,1-h]pteridin-6(5H)-one], the concentration for half-maximal inhibition (IC50) against PLK1 (GST-PLK1, 60 min reaction) was 10 to 50 µM; on PLK2 (setting [2]), under 1 µM; on PLK3 (setting [1]) it was 10 to 50 µM.

Take `CC[C@@]12CCCN1c1nc(-n3ncnc3C#Cc3ccccc3)ncc1N(C)C2=O` [Example 235, (S)-6a-ethyl-5-methyl-2-(5-(phenylethynyl)-1H-1,2,4-triazol-1-yl)-6a,7,8,9-tetrahydropyrrolo[2,1-h]pteridin-6(5H)-one]: the IC50 is over 50 µM against PLK1 (GST-PLK1, 60 min reaction); 10 to 50 µM at PLK2 (setting [2]); 10 to 50 µM on PLK3 (setting [1]).

For `CC[C@@H]1C(=O)N(C)c2cnc(-c3cn[nH]c3-c3nccs3)nc2N1c1ccc(F)c(F)c1` [Example 395, (R)-8-(3,4-difluorophenyl)-7-ethyl-5-methyl-2-(5-(thiazol-2-yl)-1H-pyrazol-4-yl)-7,8-dihydropteridin-6(5H)-one], the IC50 on PLK1 (GST-PLK1) was under 1 µM; on PLK2 (PLK TR-FRET peptide assay, GST-PLK2), under 1 µM; at PLK3 (GST-PLK3, read-out: Plk3 IC50), 1 to 10 µM. For the same compound, the “relative PLK2 activity of the enantiomers” value on PLK2 (compared with the opposite enantiomer) was “more active compound”.

`CC[C@@H]1C(=O)N(C)c2cnc(-c3ccncc3CNS(C)(=O)=O)nc2N1C1CCCC1` [Example 124, (R)—N-((4-(8-cyclopentyl-7-ethyl-5-methyl-6-oxo-5,6,7,8-tetrahydropteridin-2-yl)pyridin-3-yl)methyl)methanesulfonamide]: the IC50 against PLK1 (GST-PLK1, 60 min reaction) fell in the range of 1 to 10 µM; on PLK2 (setting [2]), 1 to 10 µM; at PLK3 (setting [1]), 10 to 50 µM.

As for `CC[C@@H]1C(=O)N(C)c2cnc(-n3ccnc3-c3ccc(F)cn3)nc2N1CCC(F)(F)F` [Example 244, (R)-7-ethyl-2-(2-(5-fluoropyridin-2-yl)-1H-imidazol-1-yl)-5-methyl-8-(3,3,3-trifluoropropyl)-7,8-dihydropteridin-6(5H)-one], the half-inhibitory concentration (IC50) against PLK1 (GST-PLK1, 60 min reaction) was 10 to 50 µM; on PLK2 (setting [2]), under 1 µM; at PLK3 (setting [1]), over 50 µM.

Take `CC[C@@H]1C(=O)N(C)c2cnc(-c3nccs3)nc2N1C1CCCC1` [Example 330, (R)-8-cyclopentyl-7-ethyl-5-methyl-2-(thiazol-2-yl)-7,8-dihydropteridin-6(5H)-one]: the IC50 against PLK1 (GST-PLK1, 60 min reaction) was 1 to 10 µM; on PLK2 (setting [2]), under 1 µM; on PLK3 (setting [1]), 10 to 50 µM.
